Values of other authors as cited in paper PMC5348030 (Nature chemical biology, 2016).

Tested on: HIV integrase

## Cc1nnc(C(=O)NC(C)(C)c2nc(C(=O)NCc3ccc(F)cc3)c(O)c(=O)n2C)o1 [raltegravir]
  residence time on its target: 4.8 min
